From patent publication US20230000813A1, “COMPOUND FOR THE TREATMENT OF BOVINE OR SWINE RESPIRATORY DISEASE” (Intervet Inc., priority 2016, published 2023)
Where “and” joins values, the source holds several entries; their conditions need not be identical. Equal entries are not always repeated.

Tests used:
M. haemolytica = experiment: Mannheimia haemolytica cattle lung infection model, efficacy (Example 10); format: in vivo, cattle calves; settings: 3 calves, 10 mg/kg
Protocol: Unless otherwise described the study was conducted as described in Clinical Example 8
(§1) Calves were infected via intratracheal instillation of appr. 300 mL of M. haemolytica PBS suspension containing approximately 4×10^9 CFU M. haemolytica in late log phase on Day 0.
One hour later three animals each were treated with 10 mg/kg of Compound 231(referred to as C. 231) (80 mg/mL in 10% Poloxamer 188), or 10 mg/kg or 5 mg/kg Compound 329 (referred to as C. 329) (150 mg/mL in 35% Cavitron).
(§2) The following clinical findings were recorded: The general behavior scores of the animals before (DO am) and after infection with M. haemolytica in the different treated and control groups are indicated in FIG. 8-1: 0=normal; 1=slightly depressive, 2=moderately depressive, 3=highly depressive, 4=recumbency.
The following pathomorphological findings after section on Day 2 were recorded: After measuring the body weight and the lung weight the Lung body mass ratio was calculated as shown in FIG. 8-2. A healthy animal has a lung body mass ration around 1.7 or lower. The area percentage of lung consolidations compared to the total lung tissue and the lung score determined that is a combined score of such percentage of lung consoldiations and the grade. For the “grade” the degree of lung consolidation score was graded from 0 to 3 for each of eight lung lobes: 0 no visible changes, 1 low graded colour changes or induration, 2 medium graded induration, 3 high graded induration, hepatisation, necrosis.
The geometrical means (CFU/g tissue) of bacteriological re-isolations of Mannheimia haemolytica from lung tissue are illustrated in FIG. 8-4.

M. haemolytica M7/2 = experiment: Mannheimia haemolytica cattle lung infection model, efficacy (Example 9); format: in vivo, cattle calves; settings: 3 calves, SC 10 mg/kg BW
Protocol: Unless otherwise described the study was conducted as described in Example 8.
as §1
as §2, with “7-1: 0 =normal;” for “8-1: 0=normal;”, “[…] recumbency.” for “4=recumbency.”
The following pathomorphological findings after section on Day 2 were recorded: After measuring the body weight and the lung weight the Lung body mass ratio was calculated as shown in FIG. 7-2. A healthy animal has a lung body mass ration around 1.7 or lower. The area percentage of lung consolidations compared to the total lung tissue and the lung score determined that is a combined score of such percentage of lung consoldiations and the grade. For the “grade” the degree of lung consolidation score was graded from 0 to 3 for each of eight lung lobes: 0 no visible changes, 1 low graded colour changes or induration, 2 medium graded induration, 3 high graded induration, hepatisation, necrosis.
The geometrical means (CFU/g tissue) of bacteriological re-isolations of Mannheimia haemolytica from lung tissue are illustrated in FIG. 7-4.

[1] = system: M. haemolytica M7/2, serotype A:1, ID 6357; experiment: Mannheimia haemolytica cattle lung infection model, efficacy (Example 8); format: in vivo, Holstein black pied cattle calves; set-up: key to General behavior, score: 0 = normal; 1 = slightly depressive; 2 = moderately depressive; 3 = highly depressive; 4 = recumbency; key to Re-isolation of bacteria, Left Bronchial swab / Re-isolation of bacteria, Right Bronchial swab: − no bacterial growth; + low; ++ medium; +++ high amount of bacterial growth; settings: for Food consumption, cumulated for all animals in the group: 3 calves; for Lung score (including grade and percent Lung consolidation): grade of consolidation 0 to 3
Protocol: 15 male Holstein black pied cattle calves of ca. 4 months age were randomly assigned to the study groups ensuring an equal distribution of body weight. The animal weight was approximately 98-133.5 kg on D-1.
Calves were infected on Day 0 via intratracheal instillation of approximately 300 mL of a M. haemolytica PBS suspension containing approximately 3×10^9 CFU M. haemolytica in late log phase.
Three animals each were treated one hour after infection by subcutaneous (SC) administration of Compound 329 in an aqueous 30% (w/v) Captisol® solution for injection at a dose of 10 mg/kg BW.
The respective dose volume was injected on the sides of the thoracic wall. Injection volumes exceeding 10 mL were divided into one portion of 10 mL administered to the left side and the remaining rest administered at different injection sites on the other side. Animals in one control group were treated with a commercially available Enrofloxacin solution (Baytril ® 10%, Bayer Animal Health) at the recommended dose of 10 mg/kg BW. The second control group was treated with the galenic diluent (30% (w/v) Captisol®, dissolved in water) as placebo.
Food consumption was measured. Single individual blood samples were collected from the 12 animals at the following time points: D-1 (predose), 30 minutes, 2, 4, 6, 24 h and at D2 (ca. 45 h) after administration. After the day 2 blood sampling, the infected cattle were slaughtered. The lungs were weighted. Lung states and lung scores were observed morphologically.
At necropsy from animals treated with test items or the positive control, samples of epithelial lining fluid (ELF), lung tissue, and additionally tissue of liver and kidney were collected. From each lung two bacteriological swaps were taken from the left and right bronchus.
From each lung two tissue samples were collected by clipping from at least two locations, one from morphologically unchanged tissue, one from the edge of pathomorphologically changed areas.

[2] = D 0 am, after infection and treatment
[3] = section on day 2, infected calves, SC 10 mg/kg, individual animals and mean, 10 mg/kg
[4] = section on day 2, infected calves, SC 10 mg/kg, individual animals and mean, 10 mg/kg, mean
[5] = section on day 2, infected calves, SC single 10 mg/kg, individual animals

CCN1CCN(c2cc3c(cc2F)c(=O)c(C(=O)O)cn3C2CC2)CC1 [Enrofloxacin, reference compound]
Food consumption, cumulated for all animals in the group (M. haemolytica; [2]): 1667 g
Food consumption, cumulated for all animals in the group (M. haemolytica; D 0 pm): 4800 g
Food consumption, cumulated for all animals in the group (M. haemolytica; D +1 am): 4800 g
Food consumption, cumulated for all animals in the group (M. haemolytica; D +1 pm): 4800 g
Food consumption, cumulated for all animals in the group (M. haemolytica; D −1 (before infection)): 4800 g
Food consumption, cumulated for all animals in the group (M. haemolytica M7/2; [2]): 4027 g
Food consumption, cumulated for all animals in the group (M. haemolytica M7/2; D 0 pm): 4800 g
Food consumption, cumulated for all animals in the group (M. haemolytica M7/2; D +1 am): 4737 g
Food consumption, cumulated for all animals in the group (M. haemolytica M7/2; D +1 pm): 4800 g
Food consumption, cumulated for all animals in the group (M. haemolytica M7/2; D −1 (before infection)): 4800 g
General behavior, score ([1]; D 0 am (before infection), calves, SC 10 mg/kg, individual animals and mean, 10 mg/kg): 0
General behavior, score ([1]; D 0 am (before infection), calves, SC 10 mg/kg, individual animals and mean, 10 mg/kg, mean): 0.0 score
Food consumption, cumulated for all animals in the group ([1]; D 0 am, after infection and treatment, SC 10 mg/kg): 660 g
Food consumption, cumulated for all animals in the group ([1]; D 0 pm, SC 10 mg/kg): 4800 g
General behavior, score ([1]; D 0 pm, calves infected with M. haemolytica, SC 10 mg/kg 1 h after infection, individual animals and mean, 10 mg/kg): 0
General behavior, score ([1]; D 0 pm, calves infected with M. haemolytica, SC 10 mg/kg 1 h after infection, individual animals and mean, 10 mg/kg, mean): 0.0 score
General behavior, score ([1]; D 1 am, calves infected with M. haemolytica, SC 10 mg/kg 1 h after infection, individual animals and mean, 10 mg/kg): 0
General behavior, score ([1]; D 1 am, calves infected with M. haemolytica, SC 10 mg/kg 1 h after infection, individual animals and mean, 10 mg/kg, mean): 0.0 score
General behavior, score ([1]; D 1 pm, calves infected with M. haemolytica, SC 10 mg/kg 1 h after infection, individual animals and mean, 10 mg/kg): 0
General behavior, score ([1]; D 1 pm, calves infected with M. haemolytica, SC 10 mg/kg 1 h after infection, individual animals and mean, 10 mg/kg, mean): 0.0 score
General behavior, score ([1]; D 2 am, calves infected with M. haemolytica, SC 10 mg/kg 1 h after infection, individual animals and mean, 10 mg/kg): 0
General behavior, score ([1]; D 2 am, calves infected with M. haemolytica, SC 10 mg/kg 1 h after infection, individual animals and mean, 10 mg/kg, mean): 0.0 score
Food consumption, cumulated for all animals in the group ([1]; D +1 am, SC 10 mg/kg): 4800 g
Food consumption, cumulated for all animals in the group ([1]; D +1 pm, SC 10 mg/kg): 4800 g
Food consumption, cumulated for all animals in the group ([1]; D −1 (before infection), SC 10 mg/kg): 4800 g
mean bacterial re-isolation ([1]; infected calves, SC 10 mg/kg, in words): Very low
Lung score (including grade and percent Lung consolidation) [1, 3]: 21.2 and 16.9 and 20.4
Lung score (including grade and percent Lung consolidation) [1, 4]: 19.5
Lung consolidations [1, 3]: 13.0% and 10.8% and 15.3%
Lung weight [1, 3]: 1334 g and 1765 g and 1429 g
Lung/body weight ratio [1, 3]: ~1.3% and 1.31% and 1.34% and 1.21% and 1.29%
Lung consolidations [1, 4]: 13.0%
Lung weight [1, 4]: 1509 g
Re-isolation of bacteria, Left Bronchial swab [1, 5]: −
Re-isolation of bacteria, Right Bronchial swab [1, 5]: −
